Laboratory results from patent US9902722B2, “Biaryl kinase inhibitors” (BRISTOL-MYERS SQUIBB COMPANY, priority 2014, dated 2018).

Molecular target: GST-Xa-hAAK1 (Homo sapiens (Human), UniProt Q2M2I8)
Assay: AAK1 Kinase Assay;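 also: each compound tested across an eleven-point concentration series, with IC50 obtained through non-linear regression fitting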
Assay type: biochemical
Settings: bacterially expressed GST-Xa-hAAK1 3.5 nM; ATP 22 μM; peptide substrate 1.5 μM; 3 hours at room temperature; Caliper LabChip 3000

GST-Xa-hAAK1, sequence (Q2M2I8 whole entry): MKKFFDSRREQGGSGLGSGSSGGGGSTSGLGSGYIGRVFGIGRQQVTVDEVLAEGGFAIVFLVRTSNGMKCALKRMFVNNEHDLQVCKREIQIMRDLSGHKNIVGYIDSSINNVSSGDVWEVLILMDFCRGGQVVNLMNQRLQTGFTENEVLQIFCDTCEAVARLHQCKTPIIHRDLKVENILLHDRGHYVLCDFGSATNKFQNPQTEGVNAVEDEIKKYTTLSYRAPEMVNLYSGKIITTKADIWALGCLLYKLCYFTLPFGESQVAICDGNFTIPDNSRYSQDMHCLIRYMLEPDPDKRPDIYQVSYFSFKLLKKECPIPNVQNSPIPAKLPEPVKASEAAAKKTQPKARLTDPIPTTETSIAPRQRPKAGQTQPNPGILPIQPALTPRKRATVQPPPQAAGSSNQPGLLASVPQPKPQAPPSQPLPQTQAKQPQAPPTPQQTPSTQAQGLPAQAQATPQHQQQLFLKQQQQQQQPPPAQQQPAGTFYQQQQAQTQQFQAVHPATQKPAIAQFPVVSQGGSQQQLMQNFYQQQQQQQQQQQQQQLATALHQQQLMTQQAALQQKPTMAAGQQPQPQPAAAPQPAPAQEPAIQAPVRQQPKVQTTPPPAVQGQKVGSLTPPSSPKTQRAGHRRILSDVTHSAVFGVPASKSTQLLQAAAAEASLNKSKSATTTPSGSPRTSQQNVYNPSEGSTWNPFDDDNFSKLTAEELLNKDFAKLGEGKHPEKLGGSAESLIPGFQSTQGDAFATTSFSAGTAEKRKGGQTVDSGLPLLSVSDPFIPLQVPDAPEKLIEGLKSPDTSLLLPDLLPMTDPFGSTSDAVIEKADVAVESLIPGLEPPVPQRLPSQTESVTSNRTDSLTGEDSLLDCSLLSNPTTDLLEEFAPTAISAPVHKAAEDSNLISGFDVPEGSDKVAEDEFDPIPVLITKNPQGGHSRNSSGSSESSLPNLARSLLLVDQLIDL

SMILES | IC50 [nM]
Cc1cc(-c2ccc(OC[C@@](C)(N)CC(C)C)c(C)n2)ccn1 [Example 65, (S)-1-((2′,6-dimethyl-[2,4′-bipyridin]-5-yl)oxy)-2,4-dimethylpentan-2-amine] | 42
Cc1cc(-c2cc(C(F)F)c(OC[C@@](C)(N)CC(C)C)cn2)cnn1 [Example 162, (S)-1-((4-(difluoromethyl)-6-(6-methylpyridazin-4-yl)pyridin-3-yl)oxy)-2,4-dimethylpentan-2-amine] | 530
COC(=O)Nc1cc(-c2cc(C)c(OC[C@@](C)(N)CC(C)C)c(C)n2)ccn1 [Example 213, (S)-methyl (5-((2-amino-2,4-dimethylpentyl)oxy)-4,6-dimethyl-[2,4′-bipyridin]-2′-yl)carbamate] | 22
Cc1cc(-c2cc(C)c(OC[C@@](C)(N)CC(C)C)c(C)n2)ccn1 [Example 212, (S)-2,4-dimethyl-1-((2′,4,6-trimethyl-[2,4′-bipyridin]-5-yl)oxy)pentan-2-amine] | 1020
CC(C)C[C@](C)(N)COc1ccc(-c2ccnc3ccccc23)cc1S(C)(=O)=O [Example 115, (S)-2,4-dimethyl-1-(2-(methylsulfonyl)-4-(quinolin-4-yl)phenoxy)pentan-2-amine] | 13
COc1cc(-c2ccnc(C(F)F)c2)ncc1OC[C@@](C)(N)CC(C)C [Example 207, (S)-1-((2′-(difluoromethyl)-4-methoxy-[2,4′-bipyridin]-5-yl)oxy)-2,4-dimethylpentan-2-amine] | 19
Cc1cc(-c2cnc(OC[C@@](C)(N)CC(C)C)c(F)c2)ccn1 [Example 97, (S)-1-((5-fluoro-2′-methyl-[3,4′-bipyridin]-6-yl)oxy)-2,4-dimethylpentan-2-amine] | 142
Cc1cc(-c2ccnc(F)c2)cnc1OC[C@@](C)(N)CC(C)C [Example 95, (S)-1-((2′-fluoro-5-methyl-[3,4′-bipyridin]-6-yl)oxy)-2,4-dimethylpentan-2-amine] | 39
Cc1cc(-c2ccc(OC[C@@H](N)CC(C)C)c(C#N)c2)cnn1 [Example 109, (S)-2-((2-amino-4-methylpentyl)oxy)-5-(6-methylpyridazin-4-yl)benzonitrile] | 340
CC(C)C[C@](N)(CF)COc1cnc(-c2ccnc(C(F)F)c2)cc1C(F)F [Example 186, (R)-1-((2′,4-bis(difluoromethyl)-[2,4′-bipyridin]-5-yl)oxy)-2-(fluoromethyl)-4-methylpentan-2-amine] | 18
Cc1nccc(-c2ccc(OC[C@@](C)(N)CC(C)C)c(C(F)(F)F)c2)c1C(=O)O [Example 111, (S)-4-(4-((2-amino-2,4-dimethylpentyl)oxy)-3-(trifluoromethyl)phenyl)-2-methylnicotinic acid] | 650
COC(=O)Nc1cc(-c2ccc(OCC(C)(N)CC(C)C)cn2)ccn1 (stereo not drawn) [Example 63, methyl (5-((2-amino-2,4-dimethylpentyl)oxy)-[2,4′-bipyridin]-2′-yl)carbamate] | 24
CC(=O)Nc1cc(-c2ccc(OC[C@@](C)(N)CC(C)C)c(C(F)(F)F)c2)c(CO)cn1 [Example 34, (S)—N-(4-(4-((2-amino-2,4-dimethylpentyl)oxy)-3-(trifluoromethyl)phenyl)-5-(hydroxymethyl)pyridin-2-yl)acetamide] | 15
COC(=O)Nc1cc(-c2ccc(OCC(C)(N)CC(C)C)c(C)c2C)ccn1 (stereo not drawn) [Example 31, methyl (4-(4-((2-amino-2,4-dimethylpentyl)oxy)-2,3-dimethylphenyl)pyridin-2-yl)carbamate] | 4.5
CC(C)C[C@](C)(N)COc1ncc(-c2ccnc3ccncc23)cc1C#N [Example 80, (S)-2-((2-amino-2,4-dimethylpentyl)oxy)-5-(1,6-naphthyridin-4-yl)nicotinonitrile] | 19
CC(C)C[C@](C)(N)COc1ccc(-c2ccnc(F)c2)cc1F [Example 93, (S)-1-(2-fluoro-4-(2-fluoropyridin-4-yl)phenoxy)-2,4-dimethylpentan-2-amine] | 33
Cc1cc(-c2cnc(OC[C@@](C)(N)CC(C)C)c(C(F)(F)F)c2)ccn1 [Example 221, (S)-2,4-dimethyl-1-((2′-methyl-5-(trifluoromethyl)-[3,4′-bipyridin]-6-yl)oxy)pentan-2-amine] | 4.1

The next compounds have a lower IC50 than those just listed; values first:

IC50 [nM] | SMILES
3.3 | CC(=O)Nc1cc(-c2cc(F)c(OC[C@@H](N)CC(C)C)c(C(F)(F)F)c2)ccn1 [Example 11, (S)—N-(4-(4-((2-amino-4-methylpentyl)oxy)-3-fluoro-5-(trifluoromethyl)phenyl)pyridin-2-yl)acetamide]
3.2 | CC(C)C[C@](C)(N)COc1ccc(-c2ccnc(F)c2Cl)cc1C(F)(F)F [Example 39, (S)-1-(4-(3-chloro-2-fluoropyridin-4-yl)-2-(trifluoromethyl)phenoxy)-2,4-dimethylpentan-2-amine]
3 | COc1cc(-c2ccnc(NC(C)=O)c2)ccc1OC[C@@H](N)CC(C)C [Example 2, (S)—N-(4-(4-((2-amino-4-methylpentyl)oxy)-3-methoxyphenyl)pyridin-2-yl)acetamide]
2.8 | CC(C)C[C@H](N)COc1ccc(-c2ccnc(N)c2)cc1C#N [Example 4, (S)-2-((2-amino-4-methylpentyl)oxy)-5-(2-aminopyridin-4-yl)benzonitrile]
2.3 | CC(C)C[C@](C)(N)COc1ccc(-c2ccnc3cc(C(F)(F)F)ccc23)cc1C(F)(F)F [Example 70, (S)-2,4-dimethyl-1-(2-(trifluoromethyl)-4-(7-(trifluoromethyl)quinolin-4-yl)phenoxy)pentan-2-amine]
2.2 | Cc1cc(-c2cc(C(F)F)c(OC[C@](N)(CF)CC(C)C)cn2)ccn1 [Example 187, (S)-1-((4-(difluoromethyl)-2′-methyl-[2,4′-bipyridin]-5-yl)oxy)-2-(fluoromethyl)-4-methylpentan-2-amine]
1.9 | COC(=O)Nc1cc(-c2cc(C(F)F)c(OC[C@](N)(CF)CC(C)C)cn2)ccn1 [Example 181, (S)-methyl (5-((2-amino-2-(fluoromethyl)-4-methylpentyl)oxy)-4-(difluoromethyl)-[2,4′-bipyridin]-2′-yl)carbamate]
1.5 | CC(C)C[C@](C)(N)COc1ccc(-c2ccnc(Cl)c2F)nc1C(F)F [Example 159, (S)-1-((2′-chloro-6-(difluoromethyl)-3′-fluoro-[2,4′-bipyridin]-5-yl)oxy)-2,4-dimethylpentan-2-amine]
1.2 | COC(=O)Nc1cc(-c2ccc(OC[C@@](C)(N)CC(C)C)c(F)c2)ccn1 [Example 28, (S)-methyl (4-(4-((2-amino-2,4-dimethylpentyl)oxy)-3-fluorophenyl)pyridin-2-yl)carbamate]
1 | COC(=O)Nc1cc(-c2ccc(OC[C@@](C)(N)CC(C)C)c(C(F)F)n2)ccn1 [Example 117, (S)-methyl (5-((2-amino-2,4-dimethylpentyl)oxy)-6-(difluoromethyl)-[2,4′-bipyridin]-2′-yl)carbamate]
0.89 | CC(C)C[C@](C)(N)COc1ccc(-c2ccnc(C(F)F)c2)cc1C#N [Example 36, (S)-2-((2-amino-2,4-dimethylpentyl)oxy)-5-(2-(difluoromethyl)pyridin-4-yl)benzonitrile]
0.86 | COc1cnccc1-c1ccc(OC[C@@](C)(N)CC(C)C)c(C(F)(F)F)c1 [Example 46, (S)-1-(4-(3-methoxypyridin-4-yl)-2-(trifluoromethyl)phenoxy)-2,4-dimethylpentan-2-amine]
0.85 | CC(C)C[C@](C)(N)COc1ccc(-c2ccnc3ccccc23)nc1C(F)F [Example 118, (S)-1-((2-(difluoromethyl)-6-(quinolin-4-yl)pyridin-3-yl)oxy)-2,4-dimethylpentan-2-amine]
0.83 | CC(C)C[C@](C)(N)COc1ccc(-c2ccnc3ccccc23)cc1C#N [Example 104, (S)-2-((2-amino-2,4-dimethylpentyl)oxy)-5-(quinolin-4-yl)benzonitrile]
0.77 | Cc1nccc(-c2ccc(OC[C@@](C)(N)CC(C)C)c(C(F)F)n2)n1 [Example 139, (S)-1-((2-(difluoromethyl)-6-(2-methylpyrimidin-4-yl)pyridin-3-yl)oxy)-2,4-dimethylpentan-2-amine]
0.77 | CC(C)C[C@](C)(N)COc1ccc(-c2ccnc(C(F)F)c2)cc1C(F)(F)F [Example 35, (S)-1-(4-(2-(difluoromethyl)pyridin-4-yl)-2-(trifluoromethyl)phenoxy)-2,4-dimethylpentan-2-amine]
0.51 | COC(=O)Nc1cc(-c2cc(C(F)F)c(OC[C@@](C)(N)CC(C)C)cn2)ccn1 [Example 120, (S)-methyl (5-((2-amino-2,4-dimethylpentyl)oxy)-4-(difluoromethyl)-[2,4′-bipyridin]-2′-yl)carbamate]
0.47 | CC(=O)Nc1cc(-c2ccc(OC[C@@H](N)CC(C)C)c(OC(F)(F)F)c2)ccn1 [Example 6, (S)—N-(4-(4-((2-amino-4-methylpentyl)oxy)-3-(trifluoromethoxy)phenyl)pyridin-2-yl)acetamide]
0.42 | CC(=O)Nc1cc(-c2ccc(OC[C@@H](N)CC(C)C)c(C)c2)ccn1 [Example 7, (S)—N-(4-(4-((2-amino-4-methylpentyl)oxy)-3-methylphenyl)pyridin-2-yl)acetamide]
0.41 | Cc1cc(-c2ccnc3cc(F)ccc23)ncc1OC[C@@](C)(N)CC(C)C [Example 232, (S)-1-((6-(7-fluoroquinolin-4-yl)-4-methylpyridin-3-yl)oxy)-2,4-dimethylpentan-2-amine]
0.34 | COC(=O)Nc1cc(-c2ccc(OC[C@@](C)(N)CC(C)C)c(C(F)(F)F)c2)ccn1 [Example 20, (S)-methyl (4-(4-((2-amino-2,4-dimethylpentyl)oxy)-3-(trifluoromethyl)phenyl)pyridin-2-yl)carbamate]
0.32 | COC(=O)Nc1cc(-c2ccc(OC[C@@](C)(N)CC(C)C)c(C3CC3)c2)ccn1 [Example 33, (S)-methyl (4-(4-((2-amino-2,4-dimethylpentyl)oxy)-3-cyclopropylphenyl)pyridin-2-yl)carbamate]
